Test results taken from patent US7981912B2, “Indole acetic acids exhibiting CRTH2 receptor antagonism and uses thereof” (Wyeth LLC, priority 2004, dated 2011).

Target: T1, human CRTH2 (Homo sapiens, UniProt Q9Y5Y4)
T1 sequence (Q9Y5Y4 1-395): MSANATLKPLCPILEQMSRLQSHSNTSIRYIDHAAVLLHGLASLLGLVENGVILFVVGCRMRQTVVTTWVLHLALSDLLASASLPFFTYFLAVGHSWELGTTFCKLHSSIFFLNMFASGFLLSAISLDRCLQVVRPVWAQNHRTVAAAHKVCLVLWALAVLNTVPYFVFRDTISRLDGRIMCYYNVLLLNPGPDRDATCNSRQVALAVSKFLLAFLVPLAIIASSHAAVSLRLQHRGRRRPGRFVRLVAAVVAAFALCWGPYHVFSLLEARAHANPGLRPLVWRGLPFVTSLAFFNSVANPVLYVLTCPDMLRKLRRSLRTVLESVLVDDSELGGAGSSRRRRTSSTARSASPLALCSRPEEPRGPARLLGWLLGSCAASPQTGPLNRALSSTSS
Test: CRTH-2 binding assay (scintillation proximity assay, inhibition of 3H-PGD2 binding)
Design: expressed in transfected cells; host or cells: HEK 293EBNA-hCRTH2 (membrane preparation)
Conditions: inhibition of 3H-PGD2 (3.6 nM) binding to HEK 293EBNA-hCRTH2 membranes; Ki calculated from IC50
Description: A CRTH2 binding assay was developed to measure the ability of compounds to inhibit the binding of PGD2 to human CRTH2 using a scintillation proximity assay.
Membranes containing hCRTH2 receptors were prepared from HEK 293EBNA-hCRTH2 cells (a HEK 293EBNA cell line stably expressing human CRTH2). The cells were grown to confluency, harvested and washed with PBS. The cells were resuspended in 10 mM Hepes pH 7.4, 1 mM EDTA and protease inhibitors and incubated for 30 min on ice. The cells were homogenized and centrifuged for 10 min at 1000×g. The supernate was centrifuged for 30 min at 100,000×g and the membrane pellet was then resusupended in 10 mM Hepes pH 7.4 and 1 mM EDTA. The protein concentration of the membrane preparation was determined by Bradford assay (Bio-Rad).
The ability of compounds to inhibit the interaction of PGD2 to human CRTH2 was determined at seven compound concentrations. Compounds were serially diluted in DMSO then diluted into CRTH2 buffer without glycerol (10 mM Hepes pH 7.4, 1 mM EDTA, 10 mM MnCl2) to six times the final desired concentration. 20 μL of the diluted compounds were transferred into non-surface binding 96 well plates (Corning). Each concentration was done in triplicate. In addition to test compounds, each plate contained 12 control wells. Six of these wells contained 20 μL of CRTH2 buffer without glycerol. These wells were used to measure total binding. Six wells contained 20 μL of CRTH2 buffer without glycerol plus 1.5 mM indomethacin. These wells were used to measure non-specific binding. Next, HEK 293EBNA-hCRTH2 membranes were resuspended in CRTH2 buffer with glycerol (10 mM Hepes pH 7.4, 1 mM EDTA, 10 mM MnCl2, 25% glycerol) so that the final concentration was approximately 20 μg protein/100 μL. Polylysine coated yttrium silicate SPA beads (Amershamn) were added to the membrane mix to a concentration of 0.4 mg/100 μL and finally ^3H-PGD2 was added to the membrane/SPA bead mix to 3.6 nM. 100 μL of the membrane/SPA bead/^3H-PGD2 mix was added to each well of the non-surface binding plates containing the diluted compound plus controls. The plates were incubated for 2 hours at room temperature with shaking and then the plates were counted on a Microbeta scintillation counter (Perkin Elmer) for 1 min per well.
IC50 values were determined from the experimental results by nonlinear regression using Prism 4.0 software. The IC50 values were then used in conjunction with the […] for hCRTH2 and the ^3H-PGD2 concentration used in the experiment to calculate the Ki for each compound.

Compound	Ki [µM]
O=C(O)Cn1cc(C2NS(=O)(=O)c3ccccc32)c2ccccc21 (centres unmarked) [Example 1, [3-(1,1-Dioxo-2,3-dihydro-1λ^6-benzo[d]isothiazol-3-yl)-indol-1-yl]-acetic acid]	< 10
Cc1ccc2c(c1)c(C1NS(=O)(=O)c3ccccc31)cn2CC(=O)O (centres unmarked) [Example 2, [3-(1,1-Dioxo-2,3-dihydro-1H-1λ^6-benzo[d]isothiazol-3-yl)-5-methyl-indol-1-yl]-acetic acid]	< 10
Cc1c(C2NS(=O)(=O)c3ccccc32)c2ccccc2n1CC(=O)O (centres unmarked) [Example 3, [3-(1,1-Dioxo-2,3-dihydro-1H-1λ^6-benzo[d]isothiazol-3-yl)-2-methyl-indol-1-yl]-acetic acid]	< 10
COc1ccc2c(c1)c(C1NS(=O)(=O)c3ccccc31)cn2CC(=O)O (centres unmarked) [Example 4, [3-(1,1-Dioxo-2,3-dihydro-1H-1λ^6-benzo[d]isothiazol-3-yl)-5-methoxy-indol-1-yl]-acetic acid]	< 10
O=C(O)Cn1cc(C2NS(=O)(=O)c3ccccc32)c2cc(Cl)ccc21 (centres unmarked) [Example 5, [5-Chloro-3-(1,1-dioxo-2,3-dihydro-1H-1λ^6-benzo[d]isothiazol-3-yl)-indol-1-yl]-acetic acid]	< 10
Cc1ccc2c(c1)c(C1NS(=O)(=O)c3ccccc31)c(C)n2CC(=O)O (centres unmarked) [Example 7, [3-(1,1-Dioxo-2,3-dihydro-1H-1λ^6-benzo[d]isothiazol-3-yl)-2,5-dimethyl-indol-1-yl]-acetic acid]	< 10
O=C(O)Cn1cc(C2NS(=O)(=O)c3ccccc32)c2cc(Br)ccc21 (centres unmarked) [Example 8, [5-Bromo-3-(1,1-dioxo-2,3-dihydro-1H-1λ^6-benzo[d]isothiazol-3-yl)-indol-1-yl]-acetic acid]	< 10
N#Cc1ccc2c(c1)c(C1NS(=O)(=O)c3ccccc31)cn2CC(=O)O (centres unmarked) [Example 9, [5-Cyano-3-(1,1-dioxo-2,3-dihydro-1H-1λ^6-benzo[d]isothiazol-3-yl)-indol-1-yl]-acetic acid]	< 10
Cc1c(C2NS(=O)(=O)c3cc(F)ccc32)c2ccccc2n1CC(=O)O (centres unmarked) [Example 13, [3-(6-Fluoro-1,1-dioxo-2,3-dihydro-1H-1λ^6-benzo[d]isothiazol-3-yl)-2-methyl-indol-1-yl]-acetic acid]	< 1
CN1C(c2cn(CC(=O)O)c3ccccc23)c2ccccc2S1(=O)=O (centres unmarked) [Example 14, [3-(2-Methyl-1,1-dioxo-2,3-dihydro-1H-1λ^6-benzo[d]isothiazol-3-yl)-indol-1-yl]-acetic acid]	< 10
O=C(O)Cn1cc(-c2nn(Cc3ccccc3)c(=O)c3ccccc23)c2ccccc21 [Example 15, [3-(3-Benzyl-4-oxo-3,4-dihydro-phthalazin-1-yl)-indol-1-yl]-acetic acid]	< 1
O=C(O)Cn1cc(C2=NN(Cc3ccccc3)S(=O)(=O)c3ccccc32)c2ccccc21 [Example 17, [3-(2-Benzyl-1,1-dioxo-1,2-dihydro-1λ6-benzo[e][1,2,3]thiadiazin-4-yl)-indol-1-yl]-acetic acid]	< 1
CN1N=C(c2cn(CC(=O)O)c3ccccc23)c2ccccc2S1(=O)=O [Example 18, [3-(2-Methyl-1,1-dioxo-1,2-dihydro-1λ6-benzo[e][1,2,3]thiadiazin-4-yl)-indol-1-yl]-acetic acid]	< 10
CN1C(=O)c2ccccc2C1c1cn(CC(=O)O)c2ccccc12 (centres unmarked) [Example 20, [3-(2-Methyl-3-oxo-2,3-dihydro-1H-isoindol-1-yl)-indol-1-yl]-acetic acid]	> 10
Cc1noc(C)c1CN1C(=O)c2ccccc2C1c1cn(CC(=O)O)c2ccccc12 (centres unmarked) [Example 22, {3-[2-(3,5-Dimethyl-isoxazol-4-ylmethyl)-3-oxo-2,3-dihydro-1H-isoindol-1-yl]-indol-1-yl}-acetic acid]	< 1
O=C(O)Cn1cc(C2c3ccccc3S(=O)(=O)N2Cc2ccccc2)c2ccccc21 (centres unmarked) [Example 28, [3-(2-Benzyl-1,1-dioxo-2,3-dihydro-1H-1λ^6-benzo[d]isothiazol-3-yl)-indol-1-yl]-acetic acid]	< 10
CC(C)CCN1C(c2cn(CC(=O)O)c3ccccc23)c2ccccc2S1(=O)=O (centres unmarked) [Example 29, {3-[2-(3-Methyl-butyl)-1,1-dioxo-2,3-dihydro-1H-1λ^6-benzo[d]isothiazol-3-yl]-indol-1-yl}-acetic acid]	< 10

The next lines start with the values.

Ki [µM]	Compound
< 1	CCCCN1N=C(c2c(C)n(CC(=O)O)c3ccccc23)[C@H]2CC=CC[C@H]2C1=O (stereo in doubt) [Example 70, [3-(3-Butyl-4-oxo-3,4,4a,5,8,8a-hexahydro-phthalazin-1-yl)-2-methyl-indol-1-yl]-acetic acid]
< 0.1	Cc1c(C2=NN(CCc3ccccc3)C(=O)[C@@H]3CC=CC[C@H]23)c2ccccc2n1CC(=O)O (stereo in doubt) [Example 72, [2-Methyl-3-(4-oxo-3-phenethyl-3,4,4a,5,8,8a-hexahydro-phthalazin-1-yl)-indol-1-yl]-acetic acid]
< 1	Cc1c(C2NS(=O)(=O)c3ccccc32)c2cc(Cl)ccc2n1CC(=O)O (centres unmarked) [Example 6, [5-Chloro-3-(1,1-dioxo-2,3-dihydro-1H-1λ^6-benzo[d]isothiazol-3-yl)-2-methyl-indol-1-yl]-acetic acid]
< 1	Cc1c(C2NS(=O)(=O)c3ccccc32)c2cc(F)ccc2n1CC(=O)O (centres unmarked) [Example 10, [3-(1,1-Dioxo-2,3-dihydro-1H-1λ^6-benzo[d]isothiazol-3-yl)-5-fluoro-2-methyl-indol-1-yl]-acetic acid]
< 1	O=C(O)Cn1cc(C2NS(=O)(=O)c3ccccc32)c2c(Cl)cccc21 (centres unmarked) [Example 11, [4-Chloro-3-(1,1-dioxo-2,3-dihydro-1H-1λ^6-benzo[d]isothiazol-3-yl)-indol-1-yl]-acetic acid]
< 1	O=C(O)Cn1cc(C2NS(=O)(=O)c3ccccc32)c2ccc(Cl)cc21 (centres unmarked) [Example 12, [6-Chloro-3-(1,1-dioxo-2,3-dihydro-1H-1λ^6-benzo[d]isothiazol-3-yl)-indol-1-yl]-acetic acid]
< 0.1	Cc1c(C2=NN(CCc3ccccc3)S(=O)(=O)c3ccccc32)c2ccccc2n1CC(=O)O [Example 19, [3-(1,1-Dioxo-2-phenethyl-1,2-dihydro-1λ^6-benzo[e][1,2,3]thiadiazin-4-yl)-2-methyl-indol-1-yl]-acetic acid]
< 0.1	Cc1c(-c2ccc(=O)n(Cc3ccccc3)n2)c2cc(Cl)ccc2n1CC(=O)O [Example 21, [3-(1-Benzyl-6-oxo-1,6-dihydro-pyridazin-3-yl)-5-chloro-2-methyl-indol-1-yl]-acetic acid]
< 0.1	Cc1c(C2=NN(CCC(C)C)S(=O)(=O)c3ccccc32)c2ccccc2n1CC(=O)O [Example 23, {2-Methyl-3-[2-(3-methyl-butyl)-1,1-dioxo-1,2-dihydro-1λ^6-benzo[e][1,2,3]thiadiazin-4-yl]-indol-1-yl}-acetic acid]
< 0.1	Cc1c(-c2nn(CCOc3ccc(Cl)cc3)c(=O)c3ccccc23)c2cc(Cl)ccc2n1CC(=O)O [Example 25, (5-Chloro-3-{3-[2-(4-chloro-phenoxy)-ethyl]-4-oxo-3,4-dihydro-phthalazin-1-yl}-2-methyl-indol-1-yl)-acetic acid]
< 0.1	Cc1c(-c2nn(Cc3nc4ccccc4s3)c(=O)c3ccccc23)c2cc(Cl)ccc2n1CC(=O)O [Example 26, [3-(3-Benzothiazol-2-ylmethyl-4-oxo-3,4-dihydro-phthalazin-1-yl)-5-chloro-2-methyl-indol-1-yl]-acetic acid]
< 0.1	Cc1c(-c2nn(CC3COc4ccccc4O3)c(=O)c3ccccc23)c2cc(Cl)ccc2n1CC(=O)O (centres unmarked) [Example 27, {5-Chloro-3-[3-(2,3-dihydro-benzo[1,4]dioxin-2-ylmethyl)-4-oxo-3,4-dihydro-phthalazin-1-yl]-2-methyl-indol-1-yl}-acetic acid]
